PubChem BioAssay (NCI)
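1) Cells in 96-well plates. 2) Compound, 48 h, 5 concentrations. 3) Linear interpolation between surrounding doses. 4) Unreached endpoint = highest concentration. Here, GI50 denotes the concentration required for 50% inhibition of growth. The concentration for full growth arrest is given as TGI.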

What was measured:
Experiment in all cases: NCI-60 cell line screen, 48 h
SNB-75 CNS = tested on: SNB-75 CNS
MALME-3M melanoma = tested on: MALME-3M melanoma
OVCAR-3 ovarian = tested on: OVCAR-3 ovarian
MCF7 breast = tested on: MCF7 breast
OVCAR-5 ovarian = tested on: OVCAR-5 ovarian
SK-OV-3 ovarian = tested on: SK-OV-3 ovarian
T-47D breast = tested on: T-47D breast
A498 renal = tested on: A498 renal
SF-539 CNS = tested on: SF-539 CNS
MDA-MB-435 = tested on: MDA-MB-435
786-0 renal = tested on: 786-0 renal
KM12 colon = tested on: KM12 colon
HCT-116 colon = tested on: HCT-116 colon
LOX IMVI melanoma = tested on: LOX IMVI melanoma
SK-MEL-5 melanoma = tested on: SK-MEL-5 melanoma
SW-620 colon = tested on: SW-620 colon
SF-268 CNS = tested on: SF-268 CNS
M14 melanoma = tested on: M14 melanoma
DU-145 prostate = tested on: DU-145 prostate
HCT-15 colon = tested on: HCT-15 colon
U251 CNS = tested on: U251 CNS
HL-60(TB) leukemia = tested on: HL-60(TB) leukemia
EKVX NSCLC = tested on: EKVX NSCLC
RPMI-8226 leukemia = tested on: RPMI-8226 leukemia
UACC-62 melanoma = tested on: UACC-62 melanoma
COLO 205 colon = tested on: COLO 205 colon
SK-MEL-28 melanoma = tested on: SK-MEL-28 melanoma
MDA-MB-231 breast = tested on: MDA-MB-231 breast
TK-10 renal = tested on: TK-10 renal
HOP-92 NSCLC = tested on: HOP-92 NSCLC
ACHN renal = tested on: ACHN renal
BT-549 breast = tested on: BT-549 breast
OVCAR-4 ovarian = tested on: OVCAR-4 ovarian
UACC-257 melanoma = tested on: UACC-257 melanoma
HT29 colon = tested on: HT29 colon
SF-295 CNS = tested on: SF-295 CNS
NCI-H23 lung = tested on: NCI-H23 lung
OVCAR-8 ovarian = tested on: OVCAR-8 ovarian
A549 NSCLC = tested on: A549 NSCLC
NCI/ADR-RES ovarian = tested on: NCI/ADR-RES ovarian
K-562 leukemia = tested on: K-562 leukemia
SN12C renal = tested on: SN12C renal
RXF 393 renal = tested on: RXF 393 renal
NCI-H460 lung = tested on: NCI-H460 lung
HS 578T breast = tested on: HS 578T breast
HCC-2998 colon = tested on: HCC-2998 colon
PC-3 prostate = tested on: PC-3 prostate
HOP-62 NSCLC = tested on: HOP-62 NSCLC
SNB-19 CNS = tested on: SNB-19 CNS
CAKI-1 renal = tested on: CAKI-1 renal

With `COc1ccc(-c2nc3c(-c4ccccc4)nc(-c4ccccc4)cn3c2-c2ccc(OC)cc2)cc1` the GI50 (SNB-75 CNS) was 26.8 µM, the TGI (SNB-75 CNS) was > 100 µM and the GI50 (MALME-3M melanoma) was > 100 µM. The TGI (MALME-3M melanoma) was > 100 µM, the GI50 (OVCAR-3 ovarian) was > 100 µM and the TGI (OVCAR-3 ovarian) was > 100 µM. The GI50 (MCF7 breast) was > 100 µM, the TGI (MCF7 breast) was > 100 µM and the GI50 (OVCAR-5 ovarian) was > 100 µM. For the same compound, the TGI (OVCAR-5 ovarian) was > 100 µM, the GI50 (SK-OV-3 ovarian) was 82.5 µM and the TGI (SK-OV-3 ovarian) was > 100 µM. For the same compound, the GI50 (T-47D breast) was > 100 µM, the TGI (T-47D breast) was > 100 µM and the GI50 (A498 renal) was > 100 µM. The TGI (A498 renal) was > 100 µM, the GI50 (SF-539 CNS) was 88.2 µM and the TGI (SF-539 CNS) was > 100 µM. The GI50 (MDA-MB-435) was > 100 µM, the TGI (MDA-MB-435) was > 100 µM and the GI50 (786-0 renal) was 49.5 µM. The TGI (786-0 renal) was > 100 µM, the GI50 (KM12 colon) was > 100 µM and the TGI (KM12 colon) was > 100 µM. The GI50 (HCT-116 colon) was > 100 µM, the TGI (HCT-116 colon) was > 100 µM and the GI50 (LOX IMVI melanoma) was > 100 µM. For the same compound, the TGI (LOX IMVI melanoma) was > 100 µM, the GI50 (SK-MEL-5 melanoma) was > 100 µM and the TGI (SK-MEL-5 melanoma) was > 100 µM. The GI50 (SW-620 colon) was > 100 µM, the TGI (SW-620 colon) was > 100 µM and the GI50 (SF-268 CNS) was > 100 µM. The TGI (SF-268 CNS) was > 100 µM, the GI50 (M14 melanoma) was > 100 µM and the TGI (M14 melanoma) was > 100 µM. For the same compound, the GI50 (DU-145 prostate) was > 100 µM, the TGI (DU-145 prostate) was > 100 µM and the GI50 (HCT-15 colon) was > 100 µM. The TGI (HCT-15 colon) was > 100 µM, the GI50 (U251 CNS) was > 100 µM and the TGI (U251 CNS) was > 100 µM. For the same compound, the GI50 (HL-60(TB) leukemia) was 3.28 µM, the TGI (HL-60(TB) leukemia) was 52.6 µM and the GI50 (EKVX NSCLC) was > 100 µM. For the same compound, the TGI (EKVX NSCLC) was > 100 µM, the GI50 (RPMI-8226 leukemia) was > 100 µM and the TGI (RPMI-8226 leukemia) was > 100 µM. For the same compound, the GI50 (UACC-62 melanoma) was 88.6 µM, the TGI (UACC-62 melanoma) was > 100 µM and the GI50 (COLO 205 colon) was > 100 µM. The TGI (COLO 205 colon) was > 100 µM, the GI50 (SK-MEL-28 melanoma) was > 100 µM and the TGI (SK-MEL-28 melanoma) was > 100 µM. For the same compound, the GI50 (MDA-MB-231 breast) was 68.5 µM, the TGI (MDA-MB-231 breast) was > 100 µM and the GI50 (TK-10 renal) was > 100 µM. The TGI (TK-10 renal) was > 100 µM, the GI50 (HOP-92 NSCLC) was 54.6 µM and the TGI (HOP-92 NSCLC) was > 100 µM. For the same compound, the GI50 (ACHN renal) was > 100 µM, the TGI (ACHN renal) was > 100 µM and the GI50 (BT-549 breast) was > 100 µM. The TGI (BT-549 breast) was > 100 µM, the GI50 (OVCAR-4 ovarian) was > 100 µM and the TGI (OVCAR-4 ovarian) was > 100 µM. For the same compound, the GI50 (UACC-257 melanoma) was > 100 µM, the TGI (UACC-257 melanoma) was > 100 µM and the GI50 (HT29 colon) was > 100 µM. The TGI (HT29 colon) was > 100 µM, the GI50 (SF-295 CNS) was > 100 µM and the TGI (SF-295 CNS) was > 100 µM. The GI50 (NCI-H23 lung) was > 100 µM, the TGI (NCI-H23 lung) was > 100 µM and the GI50 (OVCAR-8 ovarian) was > 100 µM. For the same compound, the TGI (OVCAR-8 ovarian) was > 100 µM, the GI50 (A549 NSCLC) was > 100 µM and the TGI (A549 NSCLC) was > 100 µM. For the same compound, the GI50 (NCI/ADR-RES ovarian) was > 100 µM, the TGI (NCI/ADR-RES ovarian) was > 100 µM and the GI50 (K-562 leukemia) was > 100 µM. The TGI (K-562 leukemia) was > 100 µM, the GI50 (SN12C renal) was > 100 µM and the TGI (SN12C renal) was > 100 µM. The GI50 (RXF 393 renal) was 62.7 µM, the TGI (RXF 393 renal) was > 100 µM and the GI50 (NCI-H460 lung) was > 100 µM. The TGI (NCI-H460 lung) was > 100 µM, the GI50 (HS 578T breast) was 30.6 µM and the TGI (HS 578T breast) was > 100 µM. The GI50 (HCC-2998 colon) was > 100 µM, the TGI (HCC-2998 colon) was > 100 µM and the GI50 (PC-3 prostate) was > 100 µM. The TGI (PC-3 prostate) was > 100 µM, the GI50 (HOP-62 NSCLC) was 40.6 µM and the TGI (HOP-62 NSCLC) was > 100 µM. The GI50 (SNB-19 CNS) was > 100 µM, the TGI (SNB-19 CNS) was > 100 µM and the GI50 (CAKI-1 renal) was > 100 µM. The TGI (CAKI-1 renal) was > 100 µM.
